According to patent US20040127447A1, “Augmentation of K+ channel expression using adenoviral vectors” (priority 2002, published 2004):
Like-named read-outs stand apart in the source and are kept apart here. Ends that are not written are not given here.

Assays:
[1] = tested on: human ductus arteriosus (DA) rings; assay: Human DA ring tension; details: for constriction of fresh human DA rings: hypoxia, 4-AP 1-10 mM, IBTx 200 nM
Method: DAs excised from 26 neonates with hypoplastic left heart syndrome during the Norwood procedure (age 9±2 days, 12 female, arterial PO2˜40 mmHg) were usedDAs were transported in iced saline, maintained in hypoxia and used within 1 hour. Ring tension was recorded as previously described in Michelakis E, et al. (2000) Lancet 356:134-7.
Optimal passive ring tension was determined to be 1 g, as defined by the maximal constriction to 80 mM KCl. Tension was recorded using a force transducer connected to a MacLab A-D convertor (AD Instruments, Toronto, Canada). Tension was recorded from rings bubbled with 95% N2 and 5% CO2 in Krebs' solution, to mimic in utero conditions (PO2 40 mmHg, pH 7.4, pCO2 40-50 mmHg). Normoxia was created by bubbling with 20%O2 and 5% CO2 (balance N2) resulting in PO2 150 mmHg, pH 7.4, and PCO2 40 mmHg. Optimal resting tension was previously found to be 1000 mg, as described in Michelakis E, et al. (2000) Lancet 356:134-7. To exclude the contribution of several endothelial-derived vasoactive substances, the Krebs' solution also contained meclofenamate 17 μM to inhibit PGHS and L-N^G-nitroarginine-methylester (L-NAME) 10^−5 M to inhibit NOS.

human DA rings = assay: H2O2 production in DA rings (AmplexRed, lucigenin chemiluminescence)
Method: DA rings were loaded with lucigenin 5 μM and placed in a 2 ml heated cuvette at 37° C. Counts were recorded using a Packard 1900CA Liquid Scintillation Analyzer.
H2O2, was measured using a specific, fluorometric AmplexRed® assay, as previously described in Michelakis E D, et al. (2002 ) Circ Res. 90:1307-15. An independent, specific measure of the candidate redox mediator, H2O2, was made using the one-step, fluorometric Amplex Red (Molecular Probes, Eugene, Oreg.) assay. The assay detects H2O2 using 10-acetyl-3,7-dihydroxyphenoxazine (Amplex Red reagent) a stable probe that, in the presence of horseradish peroxidase (HRP), reacts with H2O2 with a 1:1 stoichiometry to produce the highly fluorescent substance, resorufin. The assay was calibrated (FIG. 15) and found to be linear over the range of 0.25 to 5.0 μM. Freshly harvested DA rings were placed in a normoxic or a hypoxic solution containing AmplexRed and, after 20 minutes, fluorescence was recorded (excitation 530 nm, emission 590 nm), see FIG. 15.

DASMC mitochondria = assay: Mitochondrial membrane potential in DASMCs (JC-1, TMRM); format: cell-based, human
Method: Mitochondrial membrane potential (Δψm) was measured using two independent and well-validated probes JC-1 and TMRM (tetramethyl rhodamine methyl ester), as previously described in Michelakis E D, et al. (2002) Circ Res. 90:1307-15.
First-passage cultured DASMC were loaded with either JC-1 (1 μM) or TMRM (20 nM) for 30 minutes (37° C.) at 37 C. Confocal images were obtained within 30 minutes using a Zeiss Axiovert 100M inverted microscope equipped with an Apochromat 40×1.2 water-corrected objective. Settings (amplifier gain, pin hole size and filter set) were kept constant between experiments.
[…]. JC-1 fluoresces in the red spectra in hyperpolarized mitochondria (high Δψm) and in the green spectra in depolarized mitochondria (low Δψm). KCl (40 mM) was used to clamp the plasmalemmal membrane potential in some experiments. […] TMRM binds the inner and outer aspects of the inner mitochondrial membrane and accumulates in the mitochondria at greater quantities than predicted by the Nernst equation. TMRM fluorescence red in proportion to ψm. A 488 nm Argon laser was used for excitation and the resultant red/green fluorescence was quantified in channels 1 and 2 using LP 560 nm and BP 505-530 nm filters, respectively. 8-bit images were collected with a laser loiter time of 4.48 μs/pixel. Pinholes yielded optical slices of 1 μm. Results are expressed as the ratio of red/green channel fluorescence.

DASMC K+ current (IK) = assay: Whole-cell patch clamp of human DASMCs; format: cell-based; details: for IK at potentials close to the resting EM (-30 mV) / whole cell K+ current (IK): fresh human DASMC
Method: (§1) Current and voltage clamp technique, SMC isolation and pipette solutions were performed as previously described in Michelakis E D, et al. (2002) Circ Res. 90:1307-15. The response to O2, ETC inhibitors and the membrane permeable H2O2 analog, t-butyl hydrogen peroxide, were compared between DASMCs enzymatically dispersed from fresh DAs versus those maintained in tissue culture for 72 hours (either under normoxic or hypoxic conditions).
Cells were voltage clamped at a holding potential of −70 mV and currents were evoked by 10 mV steps to +50 mV using test pulses of 200 ms duration. Data were recorded and analyzed using pCLAMP 6.02 software (Axon Instruments, Foster City, Calif.). Current density was calculated (pA/pF) and plotted against voltage.

DASMC EM = assay: DASMC membrane potential EM (current clamp, DiBAC4(3)); format: cell-based, human
Method: as §1
DASMC EM was measured both using patch clamp technique in current clamp mode and noninvasively with DiBAC4(3) (20 μM, bis-barbituric acid oxonol), a potentiometric dye that increases green fluorescence upon depolarization. DiBAC4 loaded cells or intact DA rings were stimulated with multi-photon excitation at 740 nm and emission was measured in the green range, 505-530 nm. DASMCs were studied after culture in normoxic or hypoxic environment for 4-5 days. The acute change in EM that occurred in response to 4-AP (10 mM), KCL (80 mM) or a switch in PO2 from 40 to 120 mmHg was measured.

PASMC K+ current (IK) = assay: Whole-cell patch clamp of PASMCs; format: cell-based; details: normoxic-saline rat PASMCs
Text: Fresh PASMC's were isolated from fourth division PA's by enzymatic dispersion and studied using conventional whole-cell patch-clamp technique at room temperature, as previously described in Archer S L, et al. (1998) J. Clin. Invest. 101:2319-30, and Michelakis E D, et al. (2001) Am. J. Physiol. Lung Cell Mol. Physiol. 280:L1138-47. All cells were voltage-clamped at a holding potential of −70 mV. Currents were evoked in stepwise fashion from −70 mV to +70 mV with test pulses of 200 ms. Whole-cell currents were divided by the capacitance of the cell, yielding current density. The pipette solution (intracellular) contained (mmol/L): KCl 134, KH2PO4 1.2, MgCl2 1.0, HEPES 5, pH 7.30, Na2ATP 5 and EGTA 5.

Molecule: C=C(C)[C@H]1Cc2c(ccc3c2O[C@@H]2COc4cc(OC)c(OC)cc4[C@@H]2C3=O)O1 [rotenone]
- phenylephrine constriction [1]: unaltered
- relaxation of chronically normoxic DA rings [1]: no longer causes relaxation
- relaxation of the O2-preconstricted DA [1]: relax
- H2O2 production (human DA rings): decreases
- ψm in DASMCs (DASMC mitochondria): depolarizes
- IK acutely suppressed by O2 (DASMC K+ current (IK)): precisely restoring the current
- IK of DASMC from chronically normoxic DAs (DASMC K+ current (IK)): unresponsive

Molecule: iberiotoxin (QFTDVDCSVSKECWSVCKDLFGVDRGKCMGKKCRCYQ; ends and bridges not checked; cysteine pairing not given here; UniProt P24663 1-37, looked up) [IBTx]
- constriction of fresh human DA rings [1]: does not
- IK at potentials close to the resting EM (-30 mV) (DASMC K+ current (IK)): minimal inhibition
- whole cell K+ current (IK) (DASMC K+ current (IK)): significantly inhibit

Molecule: Nc1ccncc1 [4-AP, 4-aminopyridine]
- acute depolarization of ionically remodeled DASMCs (DASMC EM; chronically normoxic, returned acutely to hypoxia, 4-AP 10 mM): loose their ability to depolarize
- constriction of fresh human DA rings [1]: significantly constricts
- IK in N-S PASMCs (PASMC K+ current (IK)): reversible inhibition
- IK at potentials close to the resting EM (-30 mV) (DASMC K+ current (IK)): significant decreases
- whole cell K+ current (IK) (DASMC K+ current (IK)): significantly inhibit
- IK of DASMC from chronically normoxic DAs (DASMC K+ current (IK); returned to hypoxic conditions): unresponsive

Molecule: antimycin
- phenylephrine constriction ([1]; DA rings): unaltered
- relaxation of the O2-preconstricted DA ([1]; normoxic DA rings): relax

Molecule: CC(C)(C)OO [t-butyl-H2O2, t-butyl hydrogen peroxide]
- EM of fresh hypoxic DASMCs (DASMC EM; current clamp): depolarizes
- depolarizing response in chronically normoxic DASMCs (DASMC EM; current clamp): lost
- IK in freshly dispersed DASMCs (DASMC K+ current (IK); voltage clamp): inhibits
